Data from ChEMBL document CHEMBL5726298, “Heteroaryl-pyrimidinone compounds as PDE2 inhibitors” (2019).

Biological target: T1, GMP-stimulated 3',5'-cyclic nucleotide phosphodiesterase (Macaca mulatta, UniProt B3VTJ2)
T1 sequence (B3VTJ2 whole entry): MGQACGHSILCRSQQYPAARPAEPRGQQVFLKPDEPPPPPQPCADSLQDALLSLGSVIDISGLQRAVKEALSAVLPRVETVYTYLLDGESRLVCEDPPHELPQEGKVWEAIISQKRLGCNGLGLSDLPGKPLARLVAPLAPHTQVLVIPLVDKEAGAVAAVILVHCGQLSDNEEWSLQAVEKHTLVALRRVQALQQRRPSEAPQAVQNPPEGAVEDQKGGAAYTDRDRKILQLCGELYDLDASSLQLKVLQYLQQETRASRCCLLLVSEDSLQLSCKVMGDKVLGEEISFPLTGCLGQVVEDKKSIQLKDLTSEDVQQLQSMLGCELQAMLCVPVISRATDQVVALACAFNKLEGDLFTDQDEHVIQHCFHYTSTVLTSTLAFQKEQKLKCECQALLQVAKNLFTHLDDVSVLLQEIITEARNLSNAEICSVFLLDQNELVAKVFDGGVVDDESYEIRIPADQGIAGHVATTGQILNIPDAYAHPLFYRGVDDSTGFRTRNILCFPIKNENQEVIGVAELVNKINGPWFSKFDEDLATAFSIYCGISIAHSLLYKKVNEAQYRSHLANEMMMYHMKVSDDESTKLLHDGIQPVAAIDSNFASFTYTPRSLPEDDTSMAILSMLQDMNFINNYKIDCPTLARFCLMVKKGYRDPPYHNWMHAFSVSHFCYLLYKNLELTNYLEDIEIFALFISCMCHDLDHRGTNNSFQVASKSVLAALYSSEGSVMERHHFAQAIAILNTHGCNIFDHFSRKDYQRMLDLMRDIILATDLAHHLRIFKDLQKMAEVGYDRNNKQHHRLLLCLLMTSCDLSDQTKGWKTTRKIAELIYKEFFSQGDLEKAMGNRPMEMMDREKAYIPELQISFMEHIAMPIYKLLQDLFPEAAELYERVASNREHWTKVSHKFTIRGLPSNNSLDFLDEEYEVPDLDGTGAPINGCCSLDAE
Test: PDE2A3 assay: The activity of the compounds in accordance with the present invention as PDE2 inhibitors may be readily determined using a fluorescence polarization (FP) methodology (Huang, W., et al., J. Biomol Screen, 2002, 7: 215). […] Done in Lab A for rhPDE2A3.

Work on Cc1nc(-c2csc(C(C)c3ccc(C(F)(F)F)cc3)n2)cc(=O)[nH]1 (stereo unspecified) yielded a Ki of 1240 nM.
